{"source": "patent US6515025B2", "about": "“Use of ethynyl alanine amino diol compounds to inhibit enzymatic conversion of angiotensinogen to angiotensin I” (Pharmacia Corporation, priority 1991, dated 2003)", "key": {"[1]": {"test_system": "Plasma Renin Activity (PRA)", "experiment": "Marmoset plasma renin activity (PRA) reduction on oral administration", "format": "in vivo, Marmoset monkeys (Callithrix jacchus)", "settings": "0.1 MPK, IG; for inhibition at 0.1 mg/kg: Primates, po", "protocol": "The oral activity of renin inhibitor compounds was determined in vivo in Marmoset monkeys using the following procedure. Common Marmoset monkeys (Callithrix jacchus, Charles River, both sexes, body weight 300-400 g) were placed on a modified high-protein low-sodium diet (Purina, St. Louis, Mo.) for 1 week. About 24 hours prior to the administration of test compound, Lasix (5 mg/kg, im) was given. On the day of the test, the animal was anesthetized with isoflurane, body weight recorded, and a baseline blood sample taken. Then, test compound was given intragastrically and blood samples were taken in K-EDTA for plasma renin activity at appropriate time intervals. The PRA was determined by using the protocol outlined below. Results are expressed in terms of PRA at various time intervals both before and after compound administrations (“Pre” means pretreatment levels before compound administrations). Also included is percent inhibition (% INH from pretreatment levels).\nI. Angiotensin I Generation\n[…] of the above reaction mixtures, in duplicate, were incubated at 37° C. or 0° C. for 2 hours.\nII. Determination of Angiotensin I Concentrations\nAngiotensin I (AI) concentrations were determined by radioimmunoassays with a commercial kit from NEN Co.\nIII. Calculation of Plasma Renin Activity\nPRA (ng AI/ml/hr)=(AI at 37°−AI at 0°)/2 hr."}, "renin (Rat plasma)": {"target": "T1, renin (Rat plasma) (Rattus norvegicus, UniProt P08424)", "T1 construct": "the animal plasma is the source of both the renin substrate and the renin enzyme; from tissue; host or cells: pooled rat plasma", "T1 sequence (P08424 65-402)": "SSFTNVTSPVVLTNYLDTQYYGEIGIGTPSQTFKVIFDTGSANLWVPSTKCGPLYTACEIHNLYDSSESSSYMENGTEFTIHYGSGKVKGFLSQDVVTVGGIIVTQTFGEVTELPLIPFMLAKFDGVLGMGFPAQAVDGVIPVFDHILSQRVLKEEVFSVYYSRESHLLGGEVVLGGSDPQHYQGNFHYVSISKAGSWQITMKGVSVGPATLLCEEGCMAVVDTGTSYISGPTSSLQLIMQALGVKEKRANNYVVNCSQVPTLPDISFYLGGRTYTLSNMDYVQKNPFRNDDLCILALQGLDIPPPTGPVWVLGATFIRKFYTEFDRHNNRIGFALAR", "experiment": "Renin inhibitor species specificity, rat plasma renin activity", "format": "biochemical", "protocol": "Blood was collected in a 10 ml Becton Dickinson vacutainer tube with 0.1 ml of 15% EDTA (K3) solution (15 mg) from normal animals or high renin animals; i.e., those pre-treated with 5 mg/kg of Lasix® intramuscularly 2 times within a 6 hour interval 24 hours prior to bleeding. The blood was then centrifuged at 2500 RPM for 20 minutes and the plasma from the various species respectively pooled, aliquoted and stored in the freezer. The human plasma source was taking a prescription of an angiotensin converting enzyme inhibitor.\nThe plasma renin activity assay is a modification of the human renin inhibition test in that the animal plasma is the source of both the renin substrate and the renin enzyme. In a total volume of 0.1 ml, 90 mM Tris-acetate buffer, pH 7.5, 12 mM sodium EDTA, 0.012 mg/ml neomycin sulfate, 0.9 mg/ml bovine serum albumin, 1.61 mM phenylmethyl sulfonyl fluoride, 4 mM 8-hydroxyquinoline and 0.09 ml of the animal or human plasmas were incubated for 2 hours at 37° C. in a shaking water bath or at 4° C. in an ice bath in the presence or absence of renin inhibitors. The produced angiotensin I was determined by radioimmunoassay (New England Nuclear kit).\nThe amount of angiotensin I generated during the 2 hours at 4° C. was usually less than 5% of that activity produced at 37° C.; however, the 4° C. background values were nevertheless subtracted from the 37° C. ones for the 100% activity values. The renin inhibitors were assayed in duplicate using 5 concentrations and the data is expressed as a percent of the 100% total renin activity."}}, "note": "“And” between values parts separate entries of the source, which are not always exact repeats. Equal entries are not always repeated. Where two headings read alike, the source gives them in different places.", "data": [{"smiles": "C#CC[C@H](NC(=O)C(CC(=O)N(C)CCN(C)C)Cc1ccccc1)C(=O)NC(CC1CCCCC1)[C@@H](O)C(O)CC(C)C", "note": "(relative stereo) [Example 1, N1-[1R*-[[[1S,1R*-(cyclohexylmethyl)-2S*,3R*-dihydroxy-5-methylhexyl]amino]carbonyl]-3-butynyl]-N4-[2-(dimethylamino)ethyl]-N4-methyl-2S*-(phenylmethyl)butanediamide]", "values": [{"measurement": "% INH (from pretreatment PRA)", "setting": "[1]; 60 min, individual monkeys", "result": "76.6% and 95.6%"}, {"measurement": "PRA", "setting": "[1]; 60 min from dosing, individual monkeys", "result": "2.8 ngAI/ml/hr and 16.4 ngAI/ml/hr and 4 ngAI/ml/hr"}, {"measurement": "% INH (from pretreatment PRA)", "setting": "[1]; 120 min, individual monkeys", "result": "91.1% and 71.5% and 94.2%"}, {"measurement": "PRA", "setting": "[1]; 120 min from dosing, individual monkeys", "result": "4.1 ngAI/ml/hr and 20 ngAI/ml/hr and 5.2 ngAI/ml/hr"}, {"measurement": "% INH (from pretreatment PRA)", "setting": "[1]; 240 min, individual monkeys", "result": "89.8% and 67.8% and 45%"}, {"measurement": "PRA", "setting": "[1]; 240 min from dosing, individual monkeys", "result": "9.2 ngAI/ml/hr and 14.8 ngAI/ml/hr and 38.7 ngAI/ml/hr"}, {"measurement": "PRA", "setting": "[1]; Pre (pretreatment level), individual monkeys", "result": "45.8 ngAI/ml/hr and 70.2 ngAI/ml/hr and 90.1 ngAI/ml/hr"}, {"measurement": "inhibition at 0.1 mg/kg", "setting": "[1]; 60 min, individual monkeys, read-out: % INH (from pretreatment PRA)", "result": 93.8, "unit": "%"}, {"measurement": "inhibition at 0.1 mg/kg", "setting": "[1]; 1 h, 60 min, mean of monkeys A-C, read-out: MEAN % INH", "result": "88.7 ± 6", "unit": "%"}, {"measurement": "inhibition at 0.1 mg/kg", "setting": "[1]; 2 h, 120 min, mean of monkeys A-C, read-out: MEAN % INH", "result": "85.6 ± 7", "unit": "%"}, {"measurement": "inhibition at 0.1 mg/kg", "setting": "[1]; 4 h, 240 min, mean of monkeys A-C, read-out: MEAN % INH", "result": "67.5 ± 13", "unit": "%"}, {"measurement": "% of Total Renin Activity", "setting": "renin (Rat plasma); 100 nM", "result": 93, "unit": "%"}, {"measurement": "% of Total Renin Activity", "setting": "renin (Rat plasma); 400 nM", "result": 76, "unit": "%"}, {"measurement": "% of Total Renin Activity (range only)", "setting": "renin (Rat plasma); 1600 nM", "result": "(23-34)"}]}]}
